The values below come from paper PMC11249626, “Fluorophore-Labeled Pyrrolones Targeting the Intracellular Allosteric Binding Site of the Chemokine Receptor CCR1” (ACS Pharmacology & Translational Science, 2024).

The assay has as its target T1, CXCR2 (Homo sapiens, UniProt P25025).
T1 construct: host or cells: HEK293T, transient
T1 sequence (P25025 1-360): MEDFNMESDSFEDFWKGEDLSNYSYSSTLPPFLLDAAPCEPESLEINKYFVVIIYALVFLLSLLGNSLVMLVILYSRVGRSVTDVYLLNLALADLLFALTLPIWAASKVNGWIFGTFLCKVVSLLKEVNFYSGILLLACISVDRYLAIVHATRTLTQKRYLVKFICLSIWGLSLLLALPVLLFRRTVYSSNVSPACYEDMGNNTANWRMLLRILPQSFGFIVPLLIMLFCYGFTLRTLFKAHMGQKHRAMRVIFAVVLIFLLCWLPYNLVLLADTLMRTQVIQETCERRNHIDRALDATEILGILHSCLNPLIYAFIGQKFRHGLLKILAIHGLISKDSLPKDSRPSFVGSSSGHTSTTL
The experiment in a line: Membrane-based NanoBRET saturation binding assay, CXCR2_Nluc membranes. The settings on record: compared with CCR1. As to the method:
Emission spectra of Nluc -labeled CCR1 (CCR1_Nluc) protein: The emission spectra of CCR1_Nluc has already been reported by Toy et al.1 For a confirmation of the reported data with new CCR1_Nluc membrane batches, furimazine (Promega, Mannheim, Germany 1:2000) was added to the membrane preparations (2 µg protein/well). […]
NanoBRET binding assays: Membrane-based NanoBRET saturation assay: For the establishment of our NanoBRET binding assay, we referred to recently published protocols. […]
Then, 20 µL of the membrane preparations diluted in assay buffer (3 µg total protein/well) were added and the plates were incubated for 90 min at 37 °C. Subsequently, 5 µL of a furimazine solution (Promega, Mannheim, Germany, final assay dilution: 1:5,000) were added to each well (final assay volume: 35 µL) before measuring luminescence with a CLARIOstar microplate reader using 620/10 nm and 475/30 nm emission filters after 5 min of incubation in the dark. Bioluminescence resonance energy transfer (BRET) was determined as the ratio of acceptor fluorescence and donor luminescence. […] Specific binding signals were calculated as a difference of total and non-specific binding. If required, netBRET values were calculated as the difference between total BRET values and the values obtained in the absence of a fluorescent ligand. […]

As to `CN(C)c1ccc2c(-c3cc(C(=O)NCCOCCOCc4cn(CCCC(=O)C5=C(O)C(=O)N(c6ccc(Br)cc6F)C5C5CCCCC5)nn4)ccc3C(=O)[O-])c3ccc(=[N+](C)C)cc-3oc2c1` (stereo not shown) [compound 12], the “Binding signal for CXCR2” value is recorded as “much weaker”.
